Several values for one entry are separate records, joined by “and”; a condition that tells them apart may be missing. Identical values can stand only once.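 96-well plates; 48 h exposure; 5 concentrations. Endpoints by linear interpolation between flanking doses. Not reached: highest tested concentration assigned. Abbreviation: GI50, concentration required for 50% inhibition of growth. Definition used: TGI = concentration required for complete inhibition of growth.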
How the values were obtained:
Experiment in all cases: DTP human tumour cell line panel, 48 h
HCT-15 colon = test system: HCT-15 colon
RPMI-8226 leukemia = test system: RPMI-8226 leukemia
SF-268 CNS = test system: SF-268 CNS
SF-295 CNS = test system: SF-295 CNS
SK-MEL-2 melanoma = test system: SK-MEL-2 melanoma
TK-10 renal = test system: TK-10 renal
A498 renal = test system: A498 renal
RXF 393 renal = test system: RXF 393 renal

Row | Compound | TGI (HCT-15 colon) | TGI (RPMI-8226 leukemia) | TGI (SF-268 CNS) [µM] | TGI (SF-295 CNS) [µM] | TGI (SK-MEL-2 melanoma) | TGI (TK-10 renal) | TGI (A498 renal) | TGI (RXF 393 renal) | GI50 (A498 renal) [µM] | GI50 (SF-268 CNS) [µM] | GI50 (SK-MEL-2 melanoma) [µM] | GI50 (TK-10 renal) [µM]
1 | CCOC(=O)C1C(NC(N)=O)N(Cc2ccccc2)C(=O)N1Cc1ccccc1 (stereo not given) | > 100 µM | > 100 µM | > 100 | > 100 | > 100 µM | > 100 µM | – | – | – | – | – | –
2 | N#CC1(CCCCl)CCCCC1 | > 100 µM | – | > 100 | > 100 | > 100 µM | > 100 µM | > 100 µM | > 100 µM | – | – | – | –
3 | Cc1ccccc1NC(=O)CC(=O)NNCC(=O)Nc1nnc(-c2ccccc2)s1 | > 100 µM | 75.1 µM | > 100 | > 100 | > 100 µM | > 100 µM | > 100 µM | – | – | – | – | –
4 | Cc1ccccc1NC(=O)C1C(=O)N(c2ccccc2C)C(=O)/C1=N\NC(N)=O (stereo not given) | > 100 µM | – | > 100 | > 100 | > 100 µM | > 100 µM | > 100 µM | > 100 µM | – | – | – | –
5 | CC(C)(C)C1CC[C@H]2c3c([nH]c4ccccc34)[C@H]3C(=O)N(c4ccc(F)cc4)C(=O)[C@H]3[C@H]2C1 (stereo not given in full) | > 100 µM | – | 30.8 | 28.3 | 33.2 µM | 30.8 µM | 45.7 µM | 43.9 µM | – | – | – | –
6 | O=[N+]([O-])c1ccc(/C=C/c2ccc(/C=C/c3ccc([N+](=O)[O-])cc3[N+](=O)[O-])cc2)c([N+](=O)[O-])c1 | > 100 µM | > 100 µM | – | > 100 | > 100 µM | > 100 µM | > 100 µM | > 100 µM | – | – | – | –
7 | CCCCC(C(=O)C(=O)Nc1ccccc1CC)C(=O)C(C)C (stereo not given) | > 100 µM | > 100 µM | > 100 | > 100 | > 100 µM | > 100 µM | > 100 µM | – | – | – | – | –
8 | C/C(=C\c1ccccc1)C(O)C(=O)c1nc2ccc(Cl)cc2[nH]c1=O (stereo not given) | > 100 µM | > 100 µM | > 100 | > 100 | > 100 µM | > 100 µM | > 100 µM | – | – | – | – | –
9 | COC(=O)C1CC(=O)O[C@H]1c1ccc(OC)c(OC)c1 (stereo not given in full) | > 100 µM | > 100 µM | > 100 | > 100 | > 100 µM | > 100 µM | > 100 µM | > 100 µM | – | – | – | –
10 | CN(C)c1ccc(/C=c2/sc3nc(=O)c(-c4ccccc4NC(=O)C(F)(F)F)nn3c2=O)cc1 | – | – | > 100 | > 100 | > 100 µM | > 100 µM | – | > 100 µM | – | – | – | –
11 | CN(C)c1ccc(/C=C2\CCc3ccccc3C2=O)cc1Br | > 100 µM | 72.9 µM | > 100 | > 100 | > 100 µM | > 100 µM | – | > 100 µM | – | – | – | –
12 | O/N=C1/C(=C/c2ccc(OCc3ccccc3)cc2)CCCC1C(NO)c1ccc(OCc2ccccc2)cc1 (stereo not given) | > 100 µM | – | – | – | > 100 µM | – | > 100 µM | 24.9 µM | – | – | – | –
13 | O=C1c2ccccc2N1C(=O)c1ccccc1[N+](=O)[O-] | > 100 µM | > 100 µM | > 100 | – | > 100 µM | > 100 µM | > 100 µM | – | – | – | – | –
14 | CC1(C)CC(=O)C(C(=O)Nc2cccs2)=C(O)C1 | > 100 µM | > 100 µM | > 100 | > 100 | > 100 µM | > 100 µM | 88.9 µM | > 100 µM | – | – | – | –
15 | N#Cc1c(CC(=O)O)cc(=O)n2c1[nH]c1ccccc12 | > 100 µM | > 100 µM | > 100 | > 100 | > 100 µM | > 100 µM | > 100 µM | > 100 µM | – | – | – | –
16 | CNS(=O)(=O)NNS(=O)(=O)c1ccc(C)cc1 | – | > 100 µM | > 100 | > 100 | > 100 µM | > 100 µM | > 100 µM | > 100 µM | – | – | – | –
17 | CCCCCNC(=O)CCCCCCCCCCCNC(=O)CCCCCCCCCCN1C=CC(=CC=C2C=CC(=O)C=C2)C=C1 | > 100 µM | > 100 µM | > 100 | > 100 | – | – | > 100 µM | > 100 µM | – | – | – | –
18 | ON1CCc2c([nH]c3ccccc23)C1c1ccc(Cl)cc1 (stereo not given) | – | 84.3 µM | > 100 | 91 | 64.5 µM | > 100 µM | > 100 µM | 60.3 µM | – | – | – | –
19 | Nc1ccccc1C(=O)/C=C/c1ccccc1O | – | 78.4 µM | > 100 | > 100 | > 100 µM | > 100 µM | > 100 µM | > 100 µM | – | – | – | –
20 | CC(C)(C)C1CCC(O)(c2ccccc2)CC1 (stereo not given) | > 100 µM and 52.4 µM | > 100 µM and 66.6 µM | – | > 100 | > 100 µM and 28.4 µM | > 100 µM and 53.1 µM | > 100 µM and 51.4 µM | > 100 µM and 41.8 µM | – | – | – | –
21 | CN1S(=O)(=O)N(C)P12(N=P(CP(=NP13(N(C)S(=O)(=O)N1C)N(C)S(=O)(=O)N3C)(c1ccccc1)c1ccccc1)(c1ccccc1)c1ccccc1)N(C)S(=O)(=O)N2C | > 100 µM | > 100 µM | > 100 | – | > 100 µM | > 100 µM | > 100 µM | > 100 µM | – | – | – | –
22 | O=C1Nc2ccc(Cl)cc2/C1=N/c1nc(-c2ccc(Cl)cc2)cs1 | – | – | 4.41 | – | 4.85 µM | 6.13 µM | 4.98 µM | – | 1.8 | 1.29 | 1.93 | 2.88
